Experimental data taken from PubChem BioAssay (NCI).
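Exposure lasted 48 hours, with cells grown in 96-well plates and compounds tested at five concentrations. TGI: total growth inhibition.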

Tests used:
Assay in all cases: DTP human tumour cell line panel, 48 h
786-0 renal = tested on: 786-0 renal
A549 NSCLC = tested on: A549 NSCLC
ACHN renal = tested on: ACHN renal
CCRF-CEM leukemia = tested on: CCRF-CEM leukemia
COLO 205 colon = tested on: COLO 205 colon
DU-145 prostate = tested on: DU-145 prostate
EKVX NSCLC = tested on: EKVX NSCLC
HCT-116 colon = tested on: HCT-116 colon
HCT-15 colon = tested on: HCT-15 colon
HOP-62 NSCLC = tested on: HOP-62 NSCLC
HOP-92 NSCLC = tested on: HOP-92 NSCLC
HS 578T breast = tested on: HS 578T breast
HT29 colon = tested on: HT29 colon
IGROV1 ovarian = tested on: IGROV1 ovarian
K-562 leukemia = tested on: K-562 leukemia
KM12 colon = tested on: KM12 colon
LOX IMVI melanoma = tested on: LOX IMVI melanoma
M14 melanoma = tested on: M14 melanoma
MALME-3M melanoma = tested on: MALME-3M melanoma
MCF7 breast = tested on: MCF7 breast
MDA-MB-231 breast = tested on: MDA-MB-231 breast
MDA-MB-435 = tested on: MDA-MB-435
MDA-N = tested on: MDA-N
MOLT-4 leukemia = tested on: MOLT-4 leukemia
NCI-H226 lung = tested on: NCI-H226 lung
NCI-H23 lung = tested on: NCI-H23 lung
NCI/ADR-RES ovarian = tested on: NCI/ADR-RES ovarian
OVCAR-3 ovarian = tested on: OVCAR-3 ovarian
OVCAR-4 ovarian = tested on: OVCAR-4 ovarian
OVCAR-5 ovarian = tested on: OVCAR-5 ovarian
OVCAR-8 ovarian = tested on: OVCAR-8 ovarian
PC-3 prostate = tested on: PC-3 prostate
RPMI-8226 leukemia = tested on: RPMI-8226 leukemia
SF-268 CNS = tested on: SF-268 CNS
SF-295 CNS = tested on: SF-295 CNS
SK-MEL-2 melanoma = tested on: SK-MEL-2 melanoma
SK-MEL-28 melanoma = tested on: SK-MEL-28 melanoma
SK-MEL-5 melanoma = tested on: SK-MEL-5 melanoma
SK-OV-3 ovarian = tested on: SK-OV-3 ovarian
SN12C renal = tested on: SN12C renal
SNB-19 CNS = tested on: SNB-19 CNS
SNB-75 CNS = tested on: SNB-75 CNS
SR leukemia = tested on: SR leukemia
SW-620 colon = tested on: SW-620 colon
TK-10 renal = tested on: TK-10 renal
U251 CNS = tested on: U251 CNS
UACC-257 melanoma = tested on: UACC-257 melanoma
UACC-62 melanoma = tested on: UACC-62 melanoma
UO-31 renal = tested on: UO-31 renal
CAKI-1 renal = tested on: CAKI-1 renal
NCI-H460 lung = tested on: NCI-H460 lung
NCI-H522 lung = tested on: NCI-H522 lung
SF-539 CNS = tested on: SF-539 CNS
T-47D breast = tested on: T-47D breast

CC1[C@@H](OCc2ccccc2)COC(=O)N1Cc1ccccc1 (stereo not given in full)
TGI (786-0 renal): > 100 µM | TGI (A549 NSCLC): > 100 µM | TGI (ACHN renal): > 100 µM | TGI (CCRF-CEM leukemia): > 100 µM | TGI (COLO 205 colon): > 100 µM | TGI (DU-145 prostate): > 100 µM | TGI (EKVX NSCLC): > 100 µM | TGI (HCT-116 colon): > 100 µM | TGI (HCT-15 colon): > 100 µM | TGI (HOP-62 NSCLC): > 100 µM | TGI (HOP-92 NSCLC): 92.9 µM | TGI (HS 578T breast): > 100 µM | TGI (HT29 colon): > 100 µM | TGI (IGROV1 ovarian): > 100 µM | TGI (K-562 leukemia): > 100 µM | TGI (KM12 colon): > 100 µM | TGI (LOX IMVI melanoma): > 100 µM | TGI (M14 melanoma): > 100 µM | TGI (MALME-3M melanoma): > 100 µM | TGI (MCF7 breast): > 100 µM | TGI (MDA-MB-231 breast): > 100 µM | TGI (MDA-MB-435): > 100 µM | TGI (MDA-N): > 100 µM | TGI (MOLT-4 leukemia): > 100 µM | TGI (NCI-H226 lung): > 100 µM | TGI (NCI-H23 lung): > 100 µM | TGI (NCI/ADR-RES ovarian): > 100 µM | TGI (OVCAR-3 ovarian): > 100 µM | TGI (OVCAR-4 ovarian): > 100 µM | TGI (OVCAR-5 ovarian): > 100 µM | TGI (OVCAR-8 ovarian): > 100 µM | TGI (PC-3 prostate): > 100 µM | TGI (RPMI-8226 leukemia): > 100 µM | TGI (SF-268 CNS): > 100 µM | TGI (SF-295 CNS): > 100 µM | TGI (SK-MEL-2 melanoma): > 100 µM | TGI (SK-MEL-28 melanoma): > 100 µM | TGI (SK-MEL-5 melanoma): > 100 µM | TGI (SK-OV-3 ovarian): > 100 µM | TGI (SN12C renal): > 100 µM | TGI (SNB-19 CNS): > 100 µM | TGI (SNB-75 CNS): > 100 µM | TGI (SR leukemia): > 100 µM | TGI (SW-620 colon): > 100 µM | TGI (TK-10 renal): > 100 µM | TGI (U251 CNS): > 100 µM | TGI (UACC-257 melanoma): > 100 µM | TGI (UACC-62 melanoma): > 100 µM | TGI (UO-31 renal): > 100 µM

COC(=O)C(Nc1ccc(OC)cc1)c1ccccc1 (stereo not given)
TGI (786-0 renal): > 100 µM | TGI (A549 NSCLC): > 100 µM | TGI (ACHN renal): > 100 µM | TGI (CAKI-1 renal): > 100 µM | TGI (CCRF-CEM leukemia): > 100 µM | TGI (COLO 205 colon): > 100 µM | TGI (DU-145 prostate): > 100 µM | TGI (EKVX NSCLC): > 100 µM | TGI (HCT-116 colon): > 100 µM | TGI (HCT-15 colon): > 100 µM | TGI (HOP-62 NSCLC): > 100 µM | TGI (HS 578T breast): > 100 µM | TGI (HT29 colon): > 100 µM | TGI (IGROV1 ovarian): > 100 µM | TGI (K-562 leukemia): > 100 µM | TGI (KM12 colon): > 100 µM | TGI (LOX IMVI melanoma): > 100 µM | TGI (M14 melanoma): > 100 µM | TGI (MCF7 breast): > 100 µM | TGI (MDA-MB-435): > 100 µM | TGI (MDA-N): > 100 µM | TGI (MOLT-4 leukemia): > 100 µM | TGI (NCI-H23 lung): > 100 µM | TGI (NCI-H460 lung): > 100 µM | TGI (NCI-H522 lung): > 100 µM | TGI (NCI/ADR-RES ovarian): > 100 µM | TGI (OVCAR-3 ovarian): > 100 µM | TGI (OVCAR-5 ovarian): > 100 µM | TGI (OVCAR-8 ovarian): > 100 µM | TGI (PC-3 prostate): > 100 µM | TGI (RPMI-8226 leukemia): > 100 µM | TGI (SF-268 CNS): > 100 µM | TGI (SF-295 CNS): > 100 µM | TGI (SF-539 CNS): > 100 µM | TGI (SK-MEL-2 melanoma): > 100 µM | TGI (SK-MEL-28 melanoma): > 100 µM | TGI (SK-MEL-5 melanoma): > 100 µM | TGI (SN12C renal): > 100 µM | TGI (SNB-19 CNS): > 100 µM | TGI (SR leukemia): > 100 µM | TGI (SW-620 colon): > 100 µM | TGI (T-47D breast): > 100 µM | TGI (TK-10 renal): > 100 µM | TGI (UACC-257 melanoma): > 100 µM | TGI (UACC-62 melanoma): > 100 µM | TGI (UO-31 renal): > 100 µM
